Measured values: US12577234B2, “Antagonists of the muscarinic acetylcholine receptor M4” (Vanderbilt University, priority 2017, dated 2026)

Biological target: T1, human mAChR M4 (Homo sapiens, UniProt P08173)
T1 construct: expressed in transfected cells; host or cells: CHO-K1 (ATCC), stably co-expressing chimeric G protein Gqi5
T1 sequence (P08173 1-479): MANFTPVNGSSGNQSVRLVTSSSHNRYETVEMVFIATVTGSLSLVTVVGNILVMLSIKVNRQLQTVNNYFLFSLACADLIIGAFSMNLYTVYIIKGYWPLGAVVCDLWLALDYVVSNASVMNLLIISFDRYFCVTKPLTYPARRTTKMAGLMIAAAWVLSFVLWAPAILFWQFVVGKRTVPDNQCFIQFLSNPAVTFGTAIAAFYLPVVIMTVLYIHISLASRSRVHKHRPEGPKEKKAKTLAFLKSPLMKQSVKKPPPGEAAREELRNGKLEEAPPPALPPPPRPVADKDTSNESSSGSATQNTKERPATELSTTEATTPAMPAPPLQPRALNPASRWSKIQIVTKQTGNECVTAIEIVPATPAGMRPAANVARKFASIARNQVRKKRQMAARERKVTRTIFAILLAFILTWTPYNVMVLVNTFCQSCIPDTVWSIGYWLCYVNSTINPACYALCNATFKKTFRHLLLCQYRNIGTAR
Assay: mAChR M4 cell-based functional assay (calcium mobilization, EC80 acetylcholine), human M4
Details: for IC50: M4/Gqi5/CHO-K1 cells, decrease of EC80 acetylcholine response; for Emin: human M4, % ACh maximum at 30 μM
Description: Human or rat M4 cDNA, along with the chimeric G protein Gqi5, were transfected into Chinese hamster ovary (CHO-K1) cells purchased from the American Type Culture Collection using Lipofectamine2000. M4/Gqi5/CHO cells were grown in Ham's F-12 medium containing 10% heat-inactivated fetal bovine serum (FBS), 20 mM HEPES, 500 μg/mL G418 sulfate, and 200 μg/mL Hygromycin B.
For high throughput measurement of agonist-evoked increases in intracellular calcium, CHO-K1 cells stably expressing muscarinic receptors were plated in growth medium lacking G418 and hygromycin at 15,000 cells/20 μL/well in Greiner 384-well black-walled, tissue culture (TC)-treated, clear-bottom plates (VWR). Cells were incubated overnight at 37° C. and 5% CO2. […] Compound master plates were formatted in a 10 point concentration-response curve (CRC) format (1:3 dilutions) in 100% DMSO with a starting concentration of 10 or 1 mM using a BRAVO liquid handler (Agilent). Test compound CRCs were then transferred to daughter plates (240 nL) using the Echo acoustic plate reformatter (Labcyte, Sunnyvale, CA) and then diluted into assay buffer (40 μL) to a 2× stock using a Thermo Fisher Combi (Thermo Fisher Scientific, Waltham, MA).
Calcium flux was measured using the Functional Drug Screening System (FDSS) 6000 or 7000 (Hamamatsu Corporation, Tokyo, Japan) as an increase in the fluorescent static ratio. Compounds were applied to cells (20 μL, 2×) using the automated system of the FDSS at 2 seconds into the protocol and the data were collected at 1 Hz. […] Agonist activity was analyzed as a concentration-dependent increase in calcium mobilization upon compound addition. Positive allosteric modulator activity was analyzed as a concentration-dependent increase in the EC20 acetylcholine response. Antagonist activity was analyzed as a concentration-dependent decrease in the EC80 acetylcholine response; for the purposes of the tables herein, an IC50 (inhibitory concentration 50) was calculated as a concentration-dependent decrease of the response elicited by an EC80 concentration of acetylcholine. Concentration-response curves were generated using a four-parameter logistical equation in XLFit curve fitting software (IDBS, Bridgewater, NJ) for Excel (Microsoft, Redmond, WA) or Prism (GraphPad Software, Inc., San Diego, CA) or the Dotmatics software platform (Dotmatics, Bishop's Stortford, UK).

SMILES	Human M4 Emin (Table 10) [%]	IC50 (Table 10) [nM]	IC50 (Table 9) [nM]	Emin (Table 9) [%]
Cc1noc(C)c1-c1ccc(O[C@H]2C[C@@H]3CN(CCC(C)(C)C)C[C@@H]3C2)nn1 [Compound 136, 4-[6-[[(3aR,5s,6aS)-2-(3,3-dimethylbutyl)-3,3a,4,5,6,6a-hexahydro-1H-cyclopenta[c]pyrrol-5-yl]oxy]pyridazin-3-yl]-3,5-dimethyl-isoxazole]	3	174	–	–
Cc1nn(C)cc1-c1ccc(NCC2C[C@@H]3CN(CC(C)C(C)(C)C)C[C@@H]3C2)nn1 (stereo partly drawn) [Compound 63, N-[[(3aR,6aS)-2-(2,3,3-trimethylbutyl)-3,3a,4,5,6,6a-hexahydro-1H-cyclopenta[c]pyrrol-5-yl]methyl]-6-(1,3-dimethylpyrazol-4-yl)pyridazin-3-amine]	–	–	108	3.46
Fc1ccc(Cl)c(-c2ccc(OCC3C[C@@H]4CN(Cc5ccccn5)C[C@@H]4C3)nn2)c1 (stereo partly drawn) [Compound 117, (3aR,6aS)-5-[[6-(2-chloro-5-fluoro-phenyl)pyridazin-3-yl]oxymethyl]-2-(2-pyridylmethyl)-3,3a,4,5,6,6a-hexahydro-1H-cyclopenta[c]pyrrole]	–	–	1460	4.82
CCC(C)CN1C[C@H]2CC(COc3ccc(-c4cc(F)ccc4Cl)nn3)C[C@H]2C1 (stereo partly drawn) [Compound 109, (3aR,6aS)-5-[[6-(2-chloro-5-fluoro-phenyl)pyridazin-3-yl]oxymethyl]-2-(2-methylbutyl)-3,3a,4,5,6,6a-hexahydro-1H-cyclopenta[c]pyrrole]	–	–	583	4.62
Cc1cnn(C)c1-c1ccc(NCCC2C[C@@H]3CN(Cc4ccccc4)C[C@@H]3C2)nn1 (stereo partly drawn) [Compound 126, N-[2-[(3aR,6aS)-2-benzyl-3,3a,4,5,6,6a-hexahydro-1H-cyclopenta[c]pyrrol-5-yl]ethyl]-6-(2,4-dimethylpyrazol-3-yl)pyridazin-3-amine]	–	–	23	3.89
Cc1cccnc1CN1C[C@H]2CC(COc3ccc(-c4c(C)cnn4C)nn3)C[C@H]2C1 (stereo partly drawn) [Compound 90, (3aR,6aS)-5-[[6-(2,4-dimethylpyrazol-3-yl)pyridazin-3-yl]oxymethyl]-2-[(3-methyl-2-pyridyl)methyl]-3,3a,4,5,6,6a-hexahydro-1H-cyclopenta[c]pyrrole]	–	–	1430	7.98
Cc1cnn(C)c1-c1ccc(NCCC2C[C@@H]3CN(CC4CCCOC4)C[C@@H]3C2)nn1 (stereo partly drawn) [Compound 122, N-[2-[(3aR,6aS)-2-(tetrahydropyran-3-ylmethyl)-3,3a,4,5,6,6a-hexahydro-1H-cyclopenta[c]pyrrol-5-yl]ethyl]-6-(2,4-dimethylpyrazol-3-yl)pyridazin-3-amine]	–	–	27.3	4.29
Cc1cnn(C)c1-c1ccc(OCC2C[C@@H]3CN(CC45CC6CC(CC(C6)C4)C5)C[C@@H]3C2)nn1 (stereo partly drawn) [Compound 79, (3sR,6aS)-2-(1-adamantylmethyl)-5-[[6-(2,4-dimethylpyrazol-3-yl)pyridazin-3-yl]oxymethyl]-3,3a,4,5,6,6a-hexahydro-1H-cyclopenta[c]pyrrole]	–	–	119	3.76
Cc1cnn(C)c1-c1ccc(NCCC2C[C@@H]3CN(Cc4ccccc4F)C[C@@H]3C2)nn1 (stereo partly drawn) [Compound 127, N-[2-[(3aR,6aS)-2-[(2-fluorophenyl)methyl]-3,3a,4,5,6,6a-hexahydro-1H-cyclopenta[c]pyrrol-5-yl]ethyl]-6-(2,4-dimethylpyrazol-3-yl)pyridazin-3-amine]	–	–	57.8	4.93
Fc1ccc(Cl)c(-c2ccc(OCC3C[C@@H]4CN(CC56CC7CC(CC(C7)C5)C6)C[C@@H]4C3)nn2)c1 (stereo partly drawn) [Compound 107, (3aR,6aS)-2-(1-adamantylmethyl)-5-[[6-(2-chloro-5-fluoro-phenyl)pyridazin-3-yl]oxymethyl]-3,3a,4,5,6,6a-hexahydro-1H-cyclopenta[c]pyrrole]	–	–	1090	5.03
Cc1nn(C)cc1-c1ccc(N[C@@H]2C[C@@H]3CN(CC4CC5C=CC4C5)C[C@@H]3C2)c(F)c1F (stereo partly drawn) [Compound 42, (3aR,5r,6aS)-2-(5-bicyclo[2.2.1]hept-2-enylmethyl)-N-[4-(1,3-dimethylpyrazol-4-yl)-2,3-difluoro-phenyl]-3,3a,4,5,6,6a-hexahydro-1H-cyclopenta[c]pyrrol-5-amine]	–	–	422	4.00
Fc1ccc(Cl)c(-c2ccc(OCC3C[C@@H]4CN(Cc5ccc6c(c5)OCO6)C[C@@H]4C3)nn2)c1 (stereo partly drawn) [Compound 119, (3aR,6aS)-2-(1,3-benzodioxol-5-ylmethyl)-5-[[6-(2-chloro-5-fluoro-phenyl)pyridazin-3-yl]oxymethyl]-3,3a,4,5,6,6a-hexahydro-1H-cyclopenta[c]pyrrole]	–	–	668	4.24
Cc1cnn(C)c1-c1ccc(OCC2C[C@@H]3CN(Cc4ccccn4)C[C@@H]3C2)nn1 (stereo partly drawn) [Compound 89, (3aR,6aS)-5-[[6-(2,4-dimethylpyrazol-3-yl)pyridazin-3-yl]oxymethyl]-2-(2-pyridylmethyl)-3,3a,4,5,6,6a-hexahydro-1H-cyclopenta[c]pyrrole]	–	–	8080	18.1
Cc1cnn(C)c1-c1ccc(OCC2C[C@@H]3CN(CC4CCCOC4)C[C@@H]3C2)nn1 (stereo partly drawn) [Compound 85, (3aR,6aS)-5-[[6-(2,4-dimethylpyrazol-3-yl)pyridazin-3-yl]oxymethyl]-2-(tetrahydropyran-3-ylmethyl)-3,3a,4,5,6,6a-hexahydro-1H-cyclopenta[c]pyrrole]	–	–	4600	14.2

More lines, now with the values ahead:

Human M4 Emin (Table 10) [%]	IC50 (Table 10) [nM]	IC50 (Table 9) [nM]	Emin (Table 9) [%]	SMILES
7	1.07	–	–	c1cn2cc(-c3ccc(N[C@H]4C[C@@H]5CN(CC6CCOCC6)C[C@@H]5C4)nn3)ccc2n1 [Compound 183, (3aR,5s,6aS)-N-(6-imidazo[1,2-a]pyridin-6-ylpyridazin-3-yl)-2-(tetrahydropyran-4-ylmethyl)-3,3a,4,5,6,6a-hexahydro-1H-cyclopenta[c]pyrrol-5-amine]
–	–	0.6	–	Cc1nn(C)cc1-c1ccc(N[C@H]2C[C@@H]3CN(Cc4ccc5c(c4)OCO5)C[C@@H]3C2)nn1 [compound 15]
38	57.4	–	–	CC(=O)Nc1ccccc1-c1ccc(N[C@H]2C[C@@H]3CN(CC4CCOCC4)C[C@@H]3C2)nn1 [Compound 206, N-[2-[6-[[(3aR,5s,6aS)-2-(tetrahydropyran-4-ylmethyl)-3,3a,4,5,6,6a-hexahydro-1H-cyclopenta[c]pyrrol-5-yl]amino]pyridazin-3-yl]phenyl]acetamide]
–	–	860	4.76	Fc1ccc(Cl)c(-c2ccc(OCC3C[C@@H]4CN(CC5CCCOC5)C[C@@H]4C3)nn2)c1 (stereo partly drawn) [Compound 113, (3aR,6aS)-5-[[6-(2-chloro-5-fluoro-phenyl)pyridazin-3-yl]oxymethyl]-2-(tetrahydropyran-3-ylmethyl)-3,3a,4,5,6,6a-hexahydro-1H-cyclopenta[c]pyrrole]
6	4	–	–	COc1cccc(-c2ccc(N[C@H]3C[C@@H]4CN(CC5CCOCC5)C[C@@H]4C3)nn2)c1 [Compound 200, (3aR,5s,6aS)-N-[6-(3-methoxyphenyl)pyridazin-3-yl]-2-(tetrahydropyran-4-ylmethyl)-3,3a,4,5,6,6a-hexahydro-1H-cyclopenta[c]pyrrol-5-amine]
–	–	1.4	–	Cc1cccnc1CN1C[C@H]2C[C@H](Nc3ccc(-c4cn(C)nc4C)nn3)C[C@H]2C1 [compound 11]
14	7.94	–	–	c1coc(-c2ccc(N[C@H]3C[C@@H]4CN(CC5CCOCC5)C[C@@H]4C3)nn2)c1 [Compound 188, (3aR,5s,6aS)-N-[6-(2-furyl)pyridazin-3-yl]-2-(tetrahydropyran-4-ylmethyl)-3,3a,4,5,6,6a-hexahydro-1H-cyclopenta[c]pyrrol-5-amine]
